Source: patent publication US7166440B2, “2,4,5-trichlorophenoxyalkyl carboxylic acid and a method for determining dioxins using the same” (priority 2003, dated 2007)
Read-outs that look alike come from different tables or passages of the source.

How the values were obtained:
[1] = system: monoclonal antibody of clone C-1 (anti-dioxin antibody); test: Competitive EIA: inhibition of binding of clone C-1 monoclonal antibody to solid-phase antigen by free dioxin; design: species or system mouse
Procedure: (§1) Using various monoclonal antibodies, the specificity of the monoclonal antibodies to dioxin isomers was examined. The monoclonal antibodies were prepared in the following manner. An antibody-producing cell was injected into the abdominal cavity of a pristane-pretreated mouse. Th ascites fluid in the abdominal cavity caused by the growth of the cells was collected, and then a monoclonal antibody was purified by affinity chromatography using a protein G-Sepharose (manufactured by BIO-RAD Co.) as a carrier. Using three antibody-producing clones C-1, C-2 and C-3, respective monoclonal antibodies were prepared. The clones C-1, C-2 and C-3 produce monoclonal antibodies with respect to dibenzodioxin having chlorine atom at the 2-, 3-, 7-, and 8-positions.
(§2) To evaluate the specificity of the monoclonal antibody was performed according to the following principles. A solid-phase antigen (competitor) and a free dioxin (ligand) are allowed to compete with each other with respect to a free monoclonal antibody (anti-dioxin antibody). If the reactivity of the monoclonal antibody and the dioxin is higher than that of the monoclonal antibody and the solid-phase antigen, the binding of the monoclonal antibody to the solid-phase antigen is reduced. This reduction of the binding of the monoclonal antibody to the solid-phase antigen can be measured by color development method. This phenomenon can be applied to evaluate the specificity.
(§3) First, the immune antigen or the compound (IIa) conjugated with BSA that was produced in Example 2 was diluted with PBS to 1 μg/ml, and divided into each well of a 96-well assay plate (manufactured by Costar, Cat. No. 3590) in an amount of 50 μl. Then, the plate was sealed and allowed to stand at room temperature for one hour. Then, each well was washed with PBS containing 0.005% of Tween 20 three times. Next, 300 μl of Block Ace (manufactured by Snow Brand Milk Products Co., Ltd.) diluted with distilled water to a concentration of 25% was supplied to each well, and the plate was sealed and allowed to stand at 37° C. for two hours. Each well was washed with PBS containing 0.005% of Tween 20 three times. Then, a 25 μl of the dioxin compound solution of a final concentration of 5×10^−7 M was added to each well. The dioxin compound solution was prepared by diluting the dioxin with a dilution solvent comprising 20% DMSO and 0.01% of Triton X100. As controls, a dilution solvent in an amount of 25 μl was added to each well. Immediately after the addition of the dioxin compound solution or the dilution solvent, 25 μl of an antibody solution diluted with PBS containing 1 mg/ml of BSA was added to each well. The assay plate was stand at room temperature for one hour with slightly shaking.
(§4) After washing with PBS containing 0.005% of Tween 20 three times, 50 μl of the diluted HRP-labeled goat anti-mouse IgG (H+L) antibody (produced by affinity purification) was added to each well. The diluted HRP-labeled antibody was prepared by diluting the purchased HRP-labeled antibody to 2000 times as much with 10% Block Ace. The plate was allowed to stand at room temperature for one hour, followed by washing with PBS containing 0.005% of Tween 20 three times. Then, 50 μl of a HRP substrate, TMB (manufactured by KPL Co., Ltd.), was added to each well and allowed to stand at room temperature for 5 to 10 min. Then, 5 μl of a 1 M phosphate solution was added to each well, and the absorbance at a wavelength of 455 nm (655 nm for the reference) was measured with a spectrophotometer for a microtiter. The reactivity was evaluated by obtaining the absorbance (B0) at the time when the dioxin compound is not added, which is a control (diluent) and the absorbance (B) at the time when the dioxin compound is added. The inhibition rate was measured based on the following equation. Inhibition rate={(B0−B)/B0}×100 (%)
(§5) Evaluation was such that the larger this inhibition rate is, the higher the specificity of the anti-dioxin antibody to the dioxin compound.

[2] = toxicity equivalent factor of the dioxins used; cited from earlier work
[3] = system: monoclonal antibody of clone C-2 (anti-dioxin antibody); test: Competitive EIA: inhibition of binding of clone C-2 monoclonal antibody to solid-phase antigen by free dioxin; design: species or system mouse
Procedure: as §1, §2, §3, §4, §5

[4] = system: monoclonal antibody of clone C-3 (anti-dioxin antibody); test: Competitive EIA: inhibition of binding of clone C-3 monoclonal antibody to solid-phase antigen by free dioxin; design: species or system mouse
Procedure: as §1, §2, §3, §4, §5

[5] = system: anti-dioxin antibody (monoclonal antibody) to 1,2,3,7,8-PeCDF; format: binding, mouse
Procedure: as §3, §4
An anti-dioxin antibody (monoclonal antibody) to 1,2,3,7,8-PeCDF is used as an antibody. A haptenized product of a solid-phase antigen 6-(2,4,5-trichlorophenoxy) hexanoic acid amide derivative (IIa) and the chlorine-containing organic compounds in Tables 2 and 3 were allowed to compete with each other to this anti-dioxin antibody so that a competitive reaction was effected in the same manner as in Example 3. Then, the cross-reactivity was examined.

[6] = solid-phase antigen * (haptenized product of 6-(2,4,5-trichlorophenoxy) hexanoic acid amide derivative IIa), dioxin compound 5×10^−7 M
[7] = solid-phase antigen immunogen 1, dioxin compound final concentration 5×10^−7 M
[8] = solid-phase antigen immunogen 2, dioxin compound final concentration 5×10^−7 M
[9] = solid-phase antigen immunogen 3, dioxin compound final concentration 5×10^−7 M
[10] = Table 2, dioxins having TEF, solid-phase antigen (IIa), antibody to 1,2,3,7,8-PeCDF
[11] = Table 3, other chlorine-containing organic compounds and polycyclic aromatic hydrocarbons, solid-phase antigen (IIa), antibody to 1,2,3,7,8-PeCDF

Row | SMILES | Inhibition rate [1, 6] | Inhibition rate [1, 7] | TEF value [2] | Inhibition rate [3, 6] | Inhibition rate [3, 8] | Inhibition rate [4, 6] | Inhibition rate [4, 9] | cross reaction [5, 10] | cross reaction [5, 11] | cross reaction [5]
1 | Clc1cc2oc3cc(Cl)c(Cl)c(Cl)c3c2c(Cl)c1Cl [1,2,3,7,8,9-HxCDF] | 34.7% | 26.2% | 0.1 | 68.1% | 43.3% | 48.1% | 10.4% | 42.7% |  | 
2 | c1cc2ccc3ccc4ccc5cccc6c(c1)c2c3c4c56 [Benzo[ghi]perylene] |  |  |  |  |  |  |  |  | <0.1% | 
3 | c1ccc2c(c1)ccc1c3ccccc3ccc21 [Chrysene] |  |  |  |  |  |  |  |  | <0.1% | 
4 | Clc1cccc(Cl)c1Cl [1,2,3-Trichlorobenzene] |  |  |  |  |  |  |  |  | <0.1% | 
5 | c1ccc2cc3c(cc2c1)-c1cccc2cccc-3c12 [Benzo[k]fluoranthene] |  |  |  |  |  |  |  |  | <0.1% | 
6 | Clc1cc2c(oc3c(Cl)c(Cl)c(Cl)c(Cl)c32)c(Cl)c1Cl [1,2,3,4,6,7,8-HpCDF] | 7.5% | −0.9% | 0.01 | 51.4% | 6.8% | 3.4% | −2.7% | 17.9% |  | 
7 | c1ccc2c(c1)-c1cccc3c1c-2cc1ccccc13 [Benzo[b]fluoranthene] |  |  |  |  |  |  |  |  | <0.1% | 
8 | Clc1c(Cl)c(Cl)c2c(oc3c(Cl)c(Cl)c(Cl)c(Cl)c32)c1Cl [OCDF] | 27.0% | 1.1% | 0.0001 | 7.2% | 18.1% | 4.9% | 1.3% | 8.0% |  | 
9 | Clc1cc2c(oc3cc(Cl)c(Cl)c(Cl)c32)c(Cl)c1Cl [1,2,3,6,7,8-HxCDF] | 7.0% | 3.5% | 0.1 | 5.0% | 9.4% | 4.1% | 2.9% | 36.6% |  | 
10 | Clc1cc2c(cc1Cl)Oc1c(Cl)c(Cl)c(Cl)c(Cl)c1O2 [1,2,3,4,7,8-HxCDD] | 14.1% | −1.4% | 0.1 | 19.1% | −9.4% | −2.3% | −2.5% | 24.8% |  | 
11 | Clc1cc2c(cc1Cl)Oc1c(cc(Cl)c(Cl)c1Cl)O2 [1,2,3,7,8-PeCDD] | 46.2% | 21.3% | 1 | 70.4% | 45.7% | 31.2% | 5.4% | 29.9% |  | 
12 | Clc1cc2c(oc3c(Cl)c(Cl)c(Cl)cc32)c(Cl)c1Cl [2,3,4,6,7,8-HxCDF] | 44.8% | 31.1% | 0.1 | 82.8% | 28.1% | 47.9% | 13.2% | 43.8% |  | 
13 | Clc1cc2oc3cc(Cl)c(Cl)c(Cl)c3c2cc1Cl [1,2,3,7,8-PeCDF] | 27.1% | 11.8% | 0.05 | 68.6% | 17.5% | 23.2% | 0.5% | 100.0% | 100.0% | 
14 | Clc1c(Cl)c(Cl)c2c(c1Cl)Oc1c(Cl)c(Cl)c(Cl)c(Cl)c1O2 [OCDD] | 1.6% | −2.5% | 0.0001 | 9.4% | 0.1% | −3.7% | −0.4% | <0.1% |  | 
15 | Clc1cc2oc3c(Cl)c(Cl)c(Cl)cc3c2cc1Cl [2,3,4,7,8-PeCDF] | 40.1% | 26.5% |  | 55.0% | 40.2% | 46.2% | 13.0% | 16.1% |  | 
16 | c1ccc2c(c1)Cc1ccccc1-2 [Fluorene] |  |  |  |  |  |  |  |  | <0.1% | 
17 | c1ccc2cc3c(ccc4ccccc43)cc2c1 [Benz[a]anthracene] |  |  |  |  |  |  |  |  | <0.1% | 

Row | SMILES | Inhibition rate [1, 6] | Inhibition rate [1, 7] | TEF value [2] | Inhibition rate [3, 6] | Inhibition rate [3, 8] | Inhibition rate [4, 6] | Inhibition rate [4, 9] | cross reaction [5, 10] | cross reaction [5, 11] | cross reaction [5]
18 | Oc1ccc(Cl)cc1Cl [2,4-Dichlorophenol] |  |  |  |  |  |  |  |  | <0.1% | 
19 | Clc1cc2oc3c(Cl)c(Cl)c(Cl)c(Cl)c3c2cc1Cl [1,2,3,4,7,8-HxCDF] | −1.5% | 3.3% | 0.1 | −11.2% | 5.2% | 0.8% | 4.9% | 45.9% |  | 
20 | Clc1cc(-c2cc(Cl)c(Cl)c(Cl)c2)cc(Cl)c1Cl [3,3′,4,4′,5,5′-HxCB] |  |  |  |  |  |  |  |  | <0.1% | 
21 | c1ccc2cc3ccccc3cc2c1 [Anthracene] |  |  |  |  |  |  |  |  | <0.1% | 
22 | c1cc2ccc3cccc4ccc(c1)c2c34 [Pyrene] |  |  |  |  |  |  |  |  | <0.1% | 
23 | Oc1ccc(Cl)c(Cl)c1 [3,4-Dichlorophenol] |  |  |  |  |  |  |  |  | <0.1% | 
24 | Clc1ccc(-c2ccc(Cl)c(Cl)c2)cc1Cl [3,3′,4,4′-TeCB] |  |  |  |  |  |  |  |  | <0.1% | 
25 | Clc1cc2c(c(Cl)c1Cl)Oc1c(cc(Cl)c(Cl)c1Cl)O2 [1,2,3,7,8,9-HxCDD] | 19.1% | 15.7% | 0.1 | 41.9% | 30.6% | 28.6% | 6.7% | 39.8% |  | 
26 | Oc1cc(Cl)c(Cl)cc1Cl [2,4,5-Trichlorophenol] |  |  |  |  |  |  |  |  | <0.1% | 
27 | c1ccc2ccccc2c1 [Naphthalene] |  |  |  |  |  |  |  |  | <0.1% | 
28 | c1ccc2c(c1)ccc1ccccc12 [Phenanthrene] |  |  |  |  |  |  |  |  | <0.1% | 
29 | Clc1ccc(-c2ccccc2)cc1 [p-chlorobiphenyl] |  |  |  |  |  |  |  |  | <0.1% | 
30 | Clc1cc2c(cc1Cl)Oc1cc(Cl)c(Cl)cc1O2 [2,3,7,8-TeCDD, 2,3,7,8-tetrachlorozibenzo-p-dioxin] | 7.4% | 0.4% | 1 | 7.7% | −3.0% | −3.4% | −0.2% | 1.1% |  | 
31 | c1ccc2c(c1)-c1cccc3cccc-2c13 [Fluoranthene] |  |  |  |  |  |  |  |  |  | <0.1%
32 | Clc1ccc(-c2cc(Cl)c(Cl)c(Cl)c2)cc1Cl [3,3′,4,4′,5-PeCB] |  |  |  |  |  |  |  |  | <0.1% | 
33 | c1ccc2c(c1)-c1ccc3ccc4cccc5cc-2c1c3c45 [Indeno[1,2,3-cd]pyrene] |  |  |  |  |  |  |  |  | <0.1% | 
34 | Clc1cccc(Cl)c1 [m-Dichlorobenzene] |  |  |  |  |  |  |  |  | <0.1% | 
